Data set [1] has as its system Mycobacterium tuberculosis. As to the kind of experiment: Antibacterial activity against Mycobacterium tuberculosis H37Rv assessed as inhibition of bacterial growth incubated for 7 days by alamar blue assay. Conditions: 168 h, time 7 day. The data set is classed as functional. A general note: Alamar Blue is a resazurin reagent that responds to reducing activity.
Data set [2] concerns Staphylococcus aureus. As to the kind of experiment: Antibacterial activity against Staphylococcus aureus ATCC25923 assessed as inhibition of bacterial growth incubated for 18 hrs by microdilution broth assay. The data set is classed as functional. In general terms: In broth dilution the organism is exposed to a series of concentrations in liquid medium.
Data set [3] relates to Enterococcus faecalis. As to the kind of experiment: Antibacterial activity against Enterococcus faecalis ATCC29212 assessed as inhibition of bacterial growth incubated for 18 hrs by microdilution broth assay. The data set is classed as functional.
A further data set deals with Bacillus subtilis. As to the kind of experiment: Antibacterial activity against Bacillus subtilis ATCC6633 assessed as inhibition of bacterial growth incubated for 18 hrs by microdilution broth assay. Format: functional.
The subject of data set [4] is Staphylococcus epidermidis. As to the kind of experiment: Antibacterial activity against Staphylococcus epidermidis ATCC12228 assessed as inhibition of bacterial growth incubated for 18 hrs by microdilution broth assay. The data set is classed as functional.
A short description of data set [5]: Cytotoxicity against African green monkey Vero cells incubated for 48 hrs by MTT assay. Format: toxicity, cell-based, Chlorocebus sabaeus. For orientation: Tetrazolium dyes change colour on reduction, which living cells bring about.
Data set [6] in a line: Metabolic stability in ICR mouse liver microsomes assessed as substrate remaining at 10 uM incubated for 60 mins in presence of NADPH by LC-MS/MS analysis. Particulars: read-out: Stability. Format: ADME, Microsome.
A short description of data set [7]: Metabolic stability in human liver microsomes assessed as substrate remaining at 10 uM incubated for 60 mins in presence of NADPH by LC-MS/MS analysis. The data set is classed as ADME, Microsome. Conditions: read-out: Stability.
The subject of data set [8] is Staphylococcus aureus. Kind of data set: Antibacterial activity against methicillin resistant Staphylococcus aureus clinical isolate 20-1 assessed as inhibition of bacterial growth incubated for 7 days by alamar blue assay. Format: functional. Particulars: clinical isolate 20-1, 168 h, time 7 day.
The test system of data set [9] is Staphylococcus aureus. Kind of data set: Antibacterial activity against methicillin resistant Staphylococcus aureus clinical isolate 20-2 assessed as inhibition of bacterial growth incubated for 7 days by alamar blue assay. Particulars: clinical isolate 20-2, 168 h, time 7 day. Format: functional.
In data set [10] the test system is Staphylococcus epidermidis. Kind of data set: Antibacterial activity against methicillin resistant Staphylococcus epidermidis clinical isolate 20-1 assessed as inhibition of bacterial growth incubated for 7 days by alamar blue assay. Format: functional. Particulars: clinical isolate 20-1, 168 h, time 7 day.
Data set [11] deals with Staphylococcus epidermidis. Kind of data set: Antibacterial activity against methicillin resistant Staphylococcus epidermidis clinical isolate 20-2 assessed as inhibition of bacterial growth incubated for 7 days by alamar blue assay. Particulars: clinical isolate 20-2, 168 h, time 7 day. Format: functional.
Data set [12] deals with Staphylococcus aureus. Kind of data set: Antibacterial activity against vancomycin intermediate Staphylococcus aureus ATCC700699 assessed as inhibition of bacterial growth incubated for 7 days by alamar blue assay. Particulars: ATCC700699, 168 h, time 7 day. The data set is classed as functional.
Another data set has as its system Enterococcus. Kind of data set: Antibacterial activity against vancomycin resistant Enterococcus clinical isolate 20-1 assessed as inhibition of bacterial growth incubated for 7 days by alamar blue assay. The data set is classed as functional. Particulars: clinical isolate 20-1, 168 h, time 7 day.
Data set [13] relates to Staphylococcus aureus. As to the kind of experiment: Antibacterial activity against Linezolid resistant Staphylococcus aureus clinical isolate 20-1 assessed as inhibition of bacterial growth incubated for 7 days by alamar blue assay. The data set is classed as functional. Conditions: clinical isolate 20-1, 168 h, time 7 day.
Data set [14] deals with Staphylococcus aureus. As to the kind of experiment: Antibacterial activity against Linezolid resistant Staphylococcus aureus clinical isolate 20-2 assessed as inhibition of bacterial growth incubated for 7 days by alamar blue assay. The data set is classed as functional. Particulars: clinical isolate 20-2, 168 h, time 7 day.
For data set [15], the system named is Enterococcus faecalis. As to the kind of experiment: Antibacterial activity against Linezolid resistant Enterococcus faecalis clinical isolate 20-1 assessed as inhibition of bacterial growth incubated for 7 days by alamar blue assay. The data set is classed as functional. Conditions: clinical isolate 20-1, 168 h, time 7 day.
For data set [16], the system named is Enterococcus faecalis. As to the kind of experiment: Antibacterial activity against Linezolid resistant Enterococcus faecalis clinical isolate 20-2 assessed as inhibition of bacterial growth incubated for 7 days by alamar blue assay. The data set is classed as functional. Particulars: clinical isolate 20-2, 168 h, time 7 day.
Data set [17] can be described thus: Metabolic stability in ICR mouse liver microsomes assessed as compound remaining at 10 uM incubated for 60 mins in absence of NADPH by LC-MS/MS analysis. The data set is classed as ADME, Microsome. Conditions: read-out: Stability.
A short description of data set [18]: Metabolic stability in human liver microsomes assessed as compound remaining at 10 uM incubated for 60 mins in absence of NADPH by LC-MS/MS analysis. Conditions: read-out: Stability. The data set is classed as ADME, Microsome.

In brackets after ≈: the same amount, converted by molar mass. Where only a bound is given, the exact number is not on record here.

What is called MIC is the least concentration at which growth counts as inhibited. Regarding `CC(=O)NC[C@H]1OC(=O)N2Cc3c(cc(F)c(-c4ccc(-c5nnn(C)n5)nc4)c3F)O[C@H]12`, the minimal inhibitory concentration (MIC) in [1] is over 32 µg/mL; in the data set on Staphylococcus aureus [2], over 64 µg/mL; in the data set with Enterococcus faecalis [3], over 64 µg/mL; in the data set on Bacillus subtilis, over 64 µg/mL; in data set [4] it was over 64 µg/mL.

For orientation: IC50 means the concentration that inhibits the measured activity by half. Regarding `Cn1nnc(-c2ccc(-c3c(F)cc4c(c3F)CN3C(=O)O[C@@H](CN)[C@@H]3O4)cn2)n1`, the MIC is 0.74 µg/mL (≈ 1.78 µM) in [1]; over 64 µg/mL in the data set with Staphylococcus aureus [2]; over 64 µg/mL with Enterococcus faecalis [3]; 64 µg/mL (≈ 154 µM) in the data set with Bacillus subtilis; 64 µg/mL (≈ 154 µM) in data set [4]. In data set [5], this molecule displayed an IC50 at 48 h of 16 µg/mL (≈ 38.5 µM).

Turning to `CC(=O)NC[C@@H]1OC(=O)N2Cc3cc(-c4ccn5ncnc5c4)c(F)cc3O[C@@H]12`, the MIC in data set [1] turned out to be 1.43 µg/mL (≈ 3.6 µM); with Staphylococcus aureus [2], 8 µg/mL (≈ 20.1 µM); in the data set with Enterococcus faecalis [3] it was 0.5 µg/mL (≈ 1.26 µM); in the data set with Bacillus subtilis, 0.5 µg/mL (≈ 1.26 µM); in [4] it was 2 µg/mL (≈ 5.03 µM). Besides, in data set [5], the IC50 at 48 h is over 64 µg/mL.

Regarding `Cc1ncc2n1-c1ccc(Cl)cc1C(c1ccccc1F)=NC2` [MIDAZOLAM], the remaining at 1 h, 10 µM is 48.9% in data set [6] and 62% in data set [7].

As for `CC(=O)NC[C@H]1OC(=O)N2Cc3cc(-c4ccc(C#N)nc4)c(F)cc3O[C@@H]12`, the MIC in data set [1] is 0.48 µg/mL (≈ 1.26 µM); in the data set on Staphylococcus aureus [2], 0.125 µg/mL (≈ 0.327 µM); with Enterococcus faecalis [3] it was 0.5 µg/mL (≈ 1.31 µM); in the data set on Bacillus subtilis, 0.125 µg/mL (≈ 0.327 µM). The concentration for half-maximal inhibition (IC50) at 48 h in data set [5] is over 64 µg/mL.

Take `CC(=O)NC[C@@H]1OC(=O)N2Cc3c(cc(F)c(-c4ccc(C#N)nc4)c3F)O[C@@H]12`: the MIC in data set [1] amounted to 0.97 µg/mL (≈ 2.42 µM); in the data set with Staphylococcus aureus [2] it was 1 µg/mL (≈ 2.5 µM); in the data set on Enterococcus faecalis [3], 0.5 µg/mL (≈ 1.25 µM); in the data set on Bacillus subtilis, 0.032 µg/mL (≈ 0.0799 µM); in [4], 0.125 µg/mL (≈ 0.312 µM); in the data set on Staphylococcus aureus [8], 1 µg/mL (≈ 2.5 µM). In addition, the MIC with Staphylococcus aureus [9] is 1 µg/mL (≈ 2.5 µM); in data set [10], 0.5 µg/mL (≈ 1.25 µM); in data set [11] it was 0.5 µg/mL (≈ 1.25 µM); with Staphylococcus aureus [12], 1 µg/mL (≈ 2.5 µM); in the data set on Enterococcus, 1 µg/mL (≈ 2.5 µM); in the data set with Staphylococcus aureus [13] it was 8 µg/mL (≈ 20 µM). Moreover, the minimum inhibitory concentration (MIC) in the data set on Staphylococcus aureus [14] amounted to 8 µg/mL (≈ 20 µM); in the data set on Enterococcus faecalis [15], 2 µg/mL (≈ 5 µM); in the data set on Enterococcus faecalis [16] it was 2 µg/mL (≈ 5 µM). Moreover, in data set [5], the IC50 at 48 h was over 64 µg/mL.

In the case of `COC(=O)NC[C@@H]1OC(=O)N2Cc3cc(-c4ccc(-c5nnn(C)n5)nc4)c(F)cc3O[C@@H]12`, the MIC in [1] came out at 0.49 µg/mL (≈ 1.08 µM); in the data set on Staphylococcus aureus [2] it was 4 µg/mL (≈ 8.78 µM); in the data set with Enterococcus faecalis [3] it was 0.5 µg/mL (≈ 1.1 µM); in the data set on Bacillus subtilis, 0.125 µg/mL (≈ 0.274 µM); in data set [4], 0.125 µg/mL (≈ 0.274 µM); in the data set with Staphylococcus aureus [8], 0.25 µg/mL (≈ 0.549 µM). The MIC turned out to be 0.25 µg/mL (≈ 0.549 µM) in the data set with Staphylococcus aureus [9]; 0.125 µg/mL (≈ 0.274 µM) in data set [10]; 0.125 µg/mL (≈ 0.274 µM) in data set [11]; 0.5 µg/mL (≈ 1.1 µM) in the data set on Staphylococcus aureus [12]; 0.5 µg/mL (≈ 1.1 µM) with Enterococcus; 8 µg/mL (≈ 17.6 µM) with Staphylococcus aureus [13]. The MIC in the data set with Staphylococcus aureus [14] was found to be 8 µg/mL (≈ 17.6 µM); in the data set with Enterococcus faecalis [15], 1 µg/mL (≈ 2.2 µM); in the data set on Enterococcus faecalis [16] it was 1 µg/mL (≈ 2.2 µM). Also, in [5], the IC50 at 48 h stood at 37 µg/mL (≈ 81.2 µM). The remaining at 1 h, 10 µM in data set [17] worked out at 104%; in [18], 120%; in data set [6] it was 102%; in data set [7], 110%.

As for `COc1ccc(-c2c(F)cc3c(c2F)CN2C(=O)O[C@@H](CNC(C)=O)[C@@H]2O3)cn1`, the MIC in data set [1] turned out to be 6.75 µg/mL (≈ 16.7 µM); with Staphylococcus aureus [2] it was 8 µg/mL (≈ 19.7 µM); in the data set on Enterococcus faecalis [3] it was 0.5 µg/mL (≈ 1.23 µM); in the data set on Bacillus subtilis it was 0.032 µg/mL (≈ 0.0789 µM); in data set [4], 0.5 µg/mL (≈ 1.23 µM).

On to `COc1ccc(-c2c(F)cc3c(c2F)CN2C(=O)O[C@@H](CN)[C@@H]2O3)cn1`, for which the MIC is 1.82 µg/mL (≈ 5.01 µM) in [1]; 64 µg/mL (≈ 176 µM) in the data set with Staphylococcus aureus [2]; over 64 µg/mL with Enterococcus faecalis [3]; 64 µg/mL (≈ 176 µM) with Bacillus subtilis; 64 µg/mL (≈ 176 µM) in data set [4].

Turning to `CC(=O)c1ccc(-c2c(F)cc3c(c2F)CN2C(=O)O[C@@H](CN)[C@@H]2O3)cc1`, the MIC in data set [1] is 0.43 µg/mL (≈ 1.15 µM); with Staphylococcus aureus [2], 64 µg/mL (≈ 171 µM); with Enterococcus faecalis [3] it was over 64 µg/mL; in the data set with Bacillus subtilis it was over 64 µg/mL; in data set [4], 64 µg/mL (≈ 171 µM). The molecule also displayed an IC50 at 48 h in data set [5] of 34 µg/mL (≈ 90.8 µM).

In the case of `CC(=O)NC[C@@H]1OC(=O)N2Cc3cc(-c4ccnc(C#N)c4)c(F)cc3O[C@@H]12`, the MIC in [1] amounted to 1.85 µg/mL (≈ 4.84 µM); in the data set on Staphylococcus aureus [2] it was 4 µg/mL (≈ 10.5 µM); in the data set with Enterococcus faecalis [3], 1 µg/mL (≈ 2.62 µM); in the data set with Bacillus subtilis, 0.25 µg/mL (≈ 0.654 µM); in data set [4], 1 µg/mL (≈ 2.62 µM). The molecule further returned a concentration for half-maximal inhibition (IC50) at 48 h in [5] of over 64 µg/mL.
